Assay results from patent publication US11484608B2, “Non-invasive assessment of hepatic mitochondrial metabolism by positional isotopomer NMR tracer analysis (PINTA)” (YALE UNIVERSITY, priority 2017, dated 2022).

Legend:
[1] = system: hepatic mitochondrial fluxes (VPC, VCS); test: PINTA / ex vivo NMR tracer study in rats infused with [3-^13C]lactate and [3-^3H]glucose (Example 1); settings: 120 min [3-^13C]lactate infusion, mean ± S.E.M.
Excerpt: Male Sprague-Dawley rats (˜10 weeks of age) were ordered from Charles River (Wilmington, Mass.) at ˜300 g and fed regular chow unless otherwise specified. […] Prior to studies, rats underwent surgery under general isoflurane anesthesia to place polyethylene catheters in the jugular vein and common carotid artery (PE90 and PE50 tubing, respectively; Instech, Plymouth Meeting, Pa.). After 1 week, recovery was verified by confirming that the rats had regained their surgical weight. Unless otherwise specified, all experiments were performed following an overnight fast (16 hrs food withdrawal prior to sacrifice). In both the rodent and human studies, data are represented as the mean of two technical replicates for each subject (i.e. two technical replicates per biological replicate). Sample sizes were selected to give power to detect moderate to large differences between groups (n=5-6 per group), and all animals were included in the final analysis.
The investigator performing the animal studies was not blinded for practical reasons, but the investigators analyzing fluxes were blinded as to the group allocation.
The flux calculations required the following equations using [^13C] glucose positional enrichment in plasma or liver, determined by NMR and GC/MS mass spectrometry. VPC is the rate of pyruvate carboxylase flux as determined from the anaplerotic flow into oxaloacetate (OAA). VCS is defined as the flux of the citrate synthase reaction in the citric acid cycle. […] G2 denotes [m+2] glucose arising from the condensation of two singly-labeled trioses.
GC/MS was used to measure m+1 and m+2 [^13C]glucose enrichment. The total m+1 and m+2 [^13C]glucose enrichment was measured using a pentaacetate derivative: plasma or liver samples were deproteinized using 5 volumes of methanol, dried, and derivatized with 75 μL of 1:1 acetic anhydride:pyridine. After heating to 65° C. for 20 min, the reaction was terminated by adding 25 μL methanol, and m+1 and m+2 (as well as m+3 . . . m+6) were determined by GC/MS (CI mode, m/z 331 [m], 332 [m+1], 333 [m+2], . . . 337 [m+6]). The m+1 and m+2 [^13C] enrichments of the glucose C4C5C6 fragment were determined by generating the aldonitrile pentapropionate derivative: plasma or NMR liver extract samples were dried under N2 gas, and 50 μl hydroxylamine hydrochloride (20 mg/ml in pyridine) were added. The samples were heated at 90° C. for 60 min, then 100 μl propionic anhydride was added, after which the samples were heated at 60° C. for 30 min. Finally, the samples were evaporated under N2 gas, resuspended in ethyl acetate, and the m+1 and m+2 enrichment of the glucose C4C5C6 fragment was measured by GC/MS.
[^13C]alanine enrichment was measured by GC/MS. [^13C] NMR spectroscopy using the BRUKER TOPSPIN® system was utilized to measure relative positional 13C-enrichment of glucose, and combined with the total [^13C]glucose enrichment ([m+1]+2*[m+2]) measured by GC/MS to calculate the positional enrichment of [13C]glucose.
Total [^13C]glutamate enrichment was determined by LC-MS/MS. Approximately 100 mg of liver tissue was weighed out and homogenized in 500 μl ice-cold methanol using a TissueLyser, then centrifuged at 4000 rpm for 10 minutes. The supernatant was then purified by centrifugation (4000 rpm, 10 min) through the PALL NANOSEP® filter (100K) (Port Washington, N.Y.). Glutamate 13C enrichment ([m+1], [m+2]) was then assessed by LC-MS/MS using an AB SCIEX QTRAP 6500 (Framingham, Mass.), equipped with a SHIMADZU ultra-fast liquid chromatography (UFLC) system (Columbia, Md.) and electrospray ionization (ESI) source with negative-ion detection. The measured ion pairs were 146/128 (m0), 147/129 (m+1), and 148/130 (m+2).
Positional enrichment of glucose, glutamate, and alanine was measured by 13C NMR.

[2] = system: primary hepatocytes (cytosolic and mitochondrial calcium); test: Ca2+ imaging in isolated hepatocytes; type: cell-based, mouse; settings: isolated WT hepatocytes (not InsP3R-I KO); 100 nM glucagon or 50 nM vasopressin
Protocol: Primary hepatocytes were isolated by the Yale Liver Center from wild-type and InsP3R-I KO mice and plated on glass coverslips coated with Rat Collagen Type I. Cells were loaded with the ratiometric cytosolic Ca^2+ indicator dye, Fura-2 AM (Thermo Fisher Scientific), or the mitochondrial matrix-targeted Ca^2+ indicator, Rhod-2 AM (Thermo Fisher Scientific) according to manufacturer's instructions. Ca^2+ imaging experiments were performed in 4-(2-hydroxyethyl)-1-piperazine ethanesulfonic acid (HEPES)-buffered balanced salt solution (25 mM HEPES, 121 mM NaCl, 4.7 mM KCl, 1.2 mM MgSO4, 1.2 mM KPO4, 5 mM NaHCO3, 2.0 mM CaCl2, 10 mM Glucose, pH 7.4) with or without the PKA inhibitor H-89 (25 μM) two to five hr following initial plating. Coverslips were transferred to a custom-built perfusion chamber on the stage of an inverted microscope connected to a RedShirtImaging camera (Olympus Life Science, Waltham, Mass.). […] For cytoplasmic calcium readings, changes in fluorescence (F, λ=340) were normalized by the initial fluorescence (F0, λ=380) and were expressed as F/F0. […] Individual cell responses were normalized to their respective baseline Rhod-2 AM fluorescence values, and changes were expressed as Normalized Δ Fluorescence.

glucagon
VPDH/VCS (%) ([1]; rat liver): 2.7 ± 0.1% | VPK+ME/VPC+PDH (%) ([1]; rat liver): <2% | VPC/VEGP (%) ([1]; rats): 65 ± 3% | mitochondrial and cytosolic calcium signaling [2]: increases
